Source: patent publication US20030104507A1, “Method for detection of ATP” (priority 2001, published 2003)

What was measured:
LucPpe2m146 = assay: Stability of reagent composition with LucPpe2m146 and detergent (RT, pH 7.0); type: biochemical, Photuris pennsylvanica
Source text: (§1) The detergents used for inhibition of endogenous ATPase activity in a sample also affect activity of luciferase. […] It is ultimately the extended stability of a reagent composition, comprising an ATPase inhibitor and a luciferase enzyme, which provides a composition useful for measuring ATP, in a sample or samples, over an extended period of time.
(§2) In this experiment, the stability of a reagent composition comprising wild type LucPpy was compared to the stability of a reagent composition comprising LucPpe2m146 at about 23° C. (room temperature). The various reagent compositions had varying detergent concentrations.
(§3) Two solutions were created as listed below. One contained the luciferase, luciferin, MgSO4, and buffer (reagent composition). The other solution contained media plus ATP (media solution).
(§4) 50 μg/ml enzyme (LucPpy is Promega catalog #E170A)
(§5) Detergent (at various concentrations, see table below)
(§6) For each reagent composition, all ingredients except the luciferase enzyme were assembled; the enzyme was then added immediately before the first luminescence reading was taken. Immediately after addition of enzyme to each reagent composition and for various timepoints thereafter, 100 μl aliquots of the reagent composition were added to wells of a 96-well microtitre luminometer plate in triplicate. To these were added 100 μl Media Solution containing the ATP. Luminescence was then immediately read on a Dynex MLX microtitreplate luminometer, 0.5 second reads per well. The average relative light unit values as well as the reaction half lives are listed below in Table I and the percent of original luminescence remaining at each timepoint is listed in Table J below. The timepoint at the top of the column indicates the time at which the first rlu measurement for the samples in that column was read. […] Times listed in Table I are the same for Table J. The values for sulfobetaine and for CTAB were generated on different days, they are presented with the control values generated in the same experiment.

LucPpy = target: T1, LucPpy (Photinus pyralis, UniProt P08659); assay: Stability of reagent composition with LucPpy and detergent (RT, pH 7.0); type: biochemical; conditions: for Average Relative Light Units / Percent of Luminescence Remaining: LucPpy
T1 construct: purchased Promega E170A
Source text: as §1, §2, §3, §4, §5, §6

CCCCCCCCCCCC[N+](C)(C)CCCS(=O)(=O)[O-] [Sulfobetaine 3-10, N-Dodecyl-N,N-dimethyl-3-ammonio-1-propanesulfonate]
Average Relative Light Units (LucPpe2m146; LucPpe2m146, 0.1%, 0.75 min (head r48)): 16648.3 rlu | Percent of Luminescence Remaining (LucPpe2m146; LucPpe2m146, 0.1%, 0.75 min (times of Table I r48)): 100.00% | Average Relative Light Units (LucPpe2m146; LucPpe2m146, 0.1%, 30 min (head r48)): 17003.0 rlu | Percent of Luminescence Remaining (LucPpe2m146; LucPpe2m146, 0.1%, 30 min (times of Table I r48)): 102.1% | Average Relative Light Units (LucPpe2m146; LucPpe2m146, 0.1%, 66 min (head r48)): 17849.8 rlu | Percent of Luminescence Remaining (LucPpe2m146; LucPpe2m146, 0.1%, 66 min (times of Table I r48)): 107.2% | Average Relative Light Units (LucPpe2m146; LucPpe2m146, 0.1%, 123 min (head r48)): 16610.13 rlu | Percent of Luminescence Remaining (LucPpe2m146; LucPpe2m146, 0.1%, 123 min (times of Table I r48)): 99.8% | Average Relative Light Units (LucPpe2m146; LucPpe2m146, 0.1%, 180 min (head r48)): 17115.63 rlu | Percent of Luminescence Remaining (LucPpe2m146; LucPpe2m146, 0.1%, 180 min (times of Table I r48)): 102.8% | Average Relative Light Units (LucPpe2m146; LucPpe2m146, 0.1%, 238 min (head r48)): 18131.37 rlu | Percent of Luminescence Remaining (LucPpe2m146; LucPpe2m146, 0.1%, 238 min (times of Table I r48)): 108.9% | Average Relative Light Units (LucPpe2m146; LucPpe2m146, 0.5%, 0.75 min (head r48)): 13447.0 rlu | Percent of Luminescence Remaining (LucPpe2m146; LucPpe2m146, 0.5%, 0.75 min (times of Table I r48)): 100.00% | Average Relative Light Units (LucPpe2m146; LucPpe2m146, 0.5%, 30 min (head r48)): 13597.97 rlu | Percent of Luminescence Remaining (LucPpe2m146; LucPpe2m146, 0.5%, 30 min (times of Table I r48)): 101.1% | Average Relative Light Units (LucPpe2m146; LucPpe2m146, 0.5%, 66 min (head r48)): 14186.93 rlu | Percent of Luminescence Remaining (LucPpe2m146; LucPpe2m146, 0.5%, 66 min (times of Table I r48)): 105.5% | Average Relative Light Units (LucPpe2m146; LucPpe2m146, 0.5%, 123 min (head r48)): 12982.20 rlu | Percent of Luminescence Remaining (LucPpe2m146; LucPpe2m146, 0.5%, 123 min (times of Table I r48)): 96.5% | Average Relative Light Units (LucPpe2m146; LucPpe2m146, 0.5%, 180 min (head r48)): 14348.90 rlu | Percent of Luminescence Remaining (LucPpe2m146; LucPpe2m146, 0.5%, 180 min (times of Table I r48)): 106.7% | Average Relative Light Units (LucPpe2m146; LucPpe2m146, 0.5%, 238 min (head r48)): 13958.2 rlu | Percent of Luminescence Remaining (LucPpe2m146; LucPpe2m146, 0.5%, 238 min (times of Table I r48)): 103.8% | Average Relative Light Units (LucPpe2m146; LucPpe2m146, 1.0%, 0.75 min (head r48)): 16897.5 rlu | Percent of Luminescence Remaining (LucPpe2m146; LucPpe2m146, 1.0%, 0.75 min (times of Table I r48)): 100.00% | Average Relative Light Units (LucPpe2m146; LucPpe2m146, 1.0%, 30 min (head r48)): 16754.97 rlu | Percent of Luminescence Remaining (LucPpe2m146; LucPpe2m146, 1.0%, 30 min (times of Table I r48)): 102.0% | Average Relative Light Units (LucPpe2m146; LucPpe2m146, 1.0%, 66 min (head r48)): 7036.0 rlu | Percent of Luminescence Remaining (LucPpe2m146; LucPpe2m146, 1.0%, 66 min (times of Table I r48)): 106.0% | Average Relative Light Units (LucPpe2m146; LucPpe2m146, 1.0%, 123 min (head r48)): 6653.67 rlu | Percent of Luminescence Remaining (LucPpe2m146; LucPpe2m146, 1.0%, 123 min (times of Table I r48)): 100.3% | Average Relative Light Units (LucPpe2m146; LucPpe2m146, 1.0%, 180 min (head r48)): 7358.44 rlu | Percent of Luminescence Remaining (LucPpe2m146; LucPpe2m146, 1.0%, 180 min (times of Table I r48)): 110.9% | Average Relative Light Units (LucPpe2m146; LucPpe2m146, 1.0%, 238 min (head r48)): 6948.05 rlu | Percent of Luminescence Remaining (LucPpe2m146; LucPpe2m146, 1.0%, 238 min (times of Table I r48)): 104.7% | Half-life of Luminescence Activity (LucPpy; Common firefly luciferase (P. pyralis), conc. 0.500): no activity | Average Relative Light Units (LucPpy; 0.1%, 0.75 min (head r12)): 3291.41 rlu | Percent of Luminescence Remaining (LucPpy; 0.1%, 0.75 min (times of Table I r12)): 100.00% | Average Relative Light Units (LucPpy; 0.1%, 7.5 min (head r12)): 3178.07 rlu | Percent of Luminescence Remaining (LucPpy; 0.1%, 7.5 min (times of Table I r12)): 95.8% | Average Relative Light Units (LucPpy; 0.1%, 20.5 min (head r12)): 3262.17 rlu | Percent of Luminescence Remaining (LucPpy; 0.1%, 20.5 min (times of Table I r12)): 99.1% | Average Relative Light Units (LucPpy; 0.1%, 59 min (head r12)): 3074.49 rlu | Percent of Luminescence Remaining (LucPpy; 0.1%, 59 min (times of Table I r12)): 93.4% | Average Relative Light Units (LucPpy; 0.1%, 90 min (head r12)): 3066.29 rlu | Percent of Luminescence Remaining (LucPpy; 0.1%, 90 min (times of Table I r12)): 93. % | Average Relative Light Units (LucPpy; 0.5%, 0.75 min (head r12)): 737.788 rlu | Percent of Luminescence Remaining (LucPpy; 0.5%, 0.75 min (times of Table I r12)): 100.00% | Average Relative Light Units (LucPpy; 0.5%, 7.5 min (head r12)): 0.084 rlu | Average Relative Light Units (LucPpy; 0.5%, 20.5 min (head r12)): 0.037 rlu | Average Relative Light Units (LucPpy; 1.0%, 0.75 min (head r12)): 0.024 rlu | Average Relative Light Units (LucPpy; 1.0%, 7.5 min (head r12)): 0.000 rlu
